Reference: BindingDB's records for patent US12497405 (Merck Sharp & Dohme, 2025)

Experiments:
[1] = target: T1, DNA polymerase catalytic subunit (Human cytomegalovirus (strain AD169), UniProt P08546); experiment: CMV and VZV Polymerase Assays
T1 sequence (P08546 whole entry): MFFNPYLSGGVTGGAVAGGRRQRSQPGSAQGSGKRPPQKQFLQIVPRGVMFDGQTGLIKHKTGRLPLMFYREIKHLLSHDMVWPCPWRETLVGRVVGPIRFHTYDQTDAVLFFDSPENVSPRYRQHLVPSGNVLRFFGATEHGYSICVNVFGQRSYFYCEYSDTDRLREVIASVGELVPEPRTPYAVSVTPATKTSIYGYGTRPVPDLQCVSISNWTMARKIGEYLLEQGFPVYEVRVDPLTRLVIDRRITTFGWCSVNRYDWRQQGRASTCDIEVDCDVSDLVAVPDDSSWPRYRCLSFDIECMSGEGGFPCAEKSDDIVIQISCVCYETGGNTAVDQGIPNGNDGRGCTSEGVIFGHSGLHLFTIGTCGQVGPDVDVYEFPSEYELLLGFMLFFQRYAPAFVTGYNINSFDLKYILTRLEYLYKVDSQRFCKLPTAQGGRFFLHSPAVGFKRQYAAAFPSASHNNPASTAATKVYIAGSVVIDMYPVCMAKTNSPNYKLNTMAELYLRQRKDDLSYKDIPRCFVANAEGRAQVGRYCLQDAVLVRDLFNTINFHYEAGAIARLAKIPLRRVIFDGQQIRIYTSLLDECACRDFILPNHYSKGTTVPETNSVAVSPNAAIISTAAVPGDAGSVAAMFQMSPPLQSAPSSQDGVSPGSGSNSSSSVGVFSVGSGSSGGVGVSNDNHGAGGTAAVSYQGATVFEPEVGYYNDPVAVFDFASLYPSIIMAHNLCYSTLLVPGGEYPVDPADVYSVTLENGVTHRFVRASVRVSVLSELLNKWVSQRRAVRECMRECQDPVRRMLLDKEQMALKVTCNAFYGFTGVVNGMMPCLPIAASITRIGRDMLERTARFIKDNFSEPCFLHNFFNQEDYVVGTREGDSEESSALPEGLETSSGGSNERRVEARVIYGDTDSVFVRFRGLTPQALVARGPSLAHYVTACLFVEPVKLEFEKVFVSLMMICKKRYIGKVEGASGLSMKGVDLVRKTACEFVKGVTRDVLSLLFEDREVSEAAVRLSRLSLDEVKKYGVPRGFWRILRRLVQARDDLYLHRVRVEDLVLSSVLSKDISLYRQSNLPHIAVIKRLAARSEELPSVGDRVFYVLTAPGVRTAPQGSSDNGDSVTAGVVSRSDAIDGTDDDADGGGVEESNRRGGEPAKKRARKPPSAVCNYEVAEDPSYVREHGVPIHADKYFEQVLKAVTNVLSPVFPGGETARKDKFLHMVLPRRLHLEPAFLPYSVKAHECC
Protocol: (§1) Human cytomegalovirus and varicella zoster virus DNA polymerases were expressed via baculovirus vector in SF21 cells and purified. Heterodimeric nucleic acid substrate used in the herpesvirus polymerase reactions were generated by annealing a 59-mer template to a 17-mer digoxigenin-labeled primer. Polymerase (HCMV final concentration of 0.2 nM; VZV final concentration of 0.4 nM) was combined with an inhibitor compound or DMSO in assay buffer (10 mM HEPES, pH 7.5, 25 mM KCl, 25 mM NaCl, 5 mM MgCl2, 5% glycerol, 0.67 mg/ml bovine serum albumin, and 1 mM tris(2-carboxyethyl)phosphine)), and this mixture was pre-incubated for 30 minutes at room temperature in 384-well microtiter plates. The polymerization reaction was initiated by the addition of template/primer substrate (final concentration: 1.6 nM), and dNTPs (final concentration: 24 nM dCTP, 24 nMdGTP, 16 nM dATP, 16 nM dTTP, and 0.8 nM biotin-dUTP). After a 60 minute incubation period at 37° C., the reactions were terminated using quench buffer (25 mM HEPES pH 7.5, 100 mM NaCl, 0.25% Tween-20, 12 mM EDTA, and 1 mg/ml bovine serum albumin). Incorporation of biotinylated UTP was detected with 2.5-5 μg/mL anti-DIG AlphaLISA acceptor beads and 5-10 μg/mL streptavidin AlphaLISA donor beads (PerkinElmer). […]

[2] = target: T2, DNA polymerase catalytic subunit (Varicella-zoster virus (strain Dumas), UniProt P09252); experiment: CMV and VZV Polymerase Assays
T2 sequence (P09252 whole entry): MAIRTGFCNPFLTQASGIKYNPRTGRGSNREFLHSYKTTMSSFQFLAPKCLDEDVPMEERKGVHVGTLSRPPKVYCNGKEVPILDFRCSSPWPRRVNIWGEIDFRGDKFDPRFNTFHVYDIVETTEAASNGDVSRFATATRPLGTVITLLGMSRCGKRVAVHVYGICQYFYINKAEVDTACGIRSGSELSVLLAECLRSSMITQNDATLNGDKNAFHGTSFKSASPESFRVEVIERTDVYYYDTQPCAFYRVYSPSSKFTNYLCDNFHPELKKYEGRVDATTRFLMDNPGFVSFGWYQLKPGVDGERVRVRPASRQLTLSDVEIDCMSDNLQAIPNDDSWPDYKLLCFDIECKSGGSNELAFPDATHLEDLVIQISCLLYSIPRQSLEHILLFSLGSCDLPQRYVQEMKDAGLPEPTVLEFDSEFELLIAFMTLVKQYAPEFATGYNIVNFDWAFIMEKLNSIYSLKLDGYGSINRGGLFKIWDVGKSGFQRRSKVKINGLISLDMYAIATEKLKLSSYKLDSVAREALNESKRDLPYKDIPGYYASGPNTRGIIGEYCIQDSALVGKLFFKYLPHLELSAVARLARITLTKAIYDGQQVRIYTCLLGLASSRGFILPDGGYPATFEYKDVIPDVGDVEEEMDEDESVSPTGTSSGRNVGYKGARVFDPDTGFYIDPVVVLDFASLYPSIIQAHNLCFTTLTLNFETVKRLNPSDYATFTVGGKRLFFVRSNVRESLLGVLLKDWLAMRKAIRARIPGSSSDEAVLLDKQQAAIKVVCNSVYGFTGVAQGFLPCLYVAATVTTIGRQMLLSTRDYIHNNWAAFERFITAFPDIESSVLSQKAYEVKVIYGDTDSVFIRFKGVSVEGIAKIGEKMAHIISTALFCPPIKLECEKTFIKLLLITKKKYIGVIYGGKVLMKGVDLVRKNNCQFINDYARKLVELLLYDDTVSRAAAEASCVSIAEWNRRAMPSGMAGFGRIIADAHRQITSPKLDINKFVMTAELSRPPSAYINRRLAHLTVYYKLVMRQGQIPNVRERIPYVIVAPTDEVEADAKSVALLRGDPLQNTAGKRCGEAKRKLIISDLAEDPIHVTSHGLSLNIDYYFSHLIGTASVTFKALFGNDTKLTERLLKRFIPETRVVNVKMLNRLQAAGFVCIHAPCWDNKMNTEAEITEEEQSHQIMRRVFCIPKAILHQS
Protocol: as §1

SMILES: O=C1OC[C@@H]2C[C@@H](Oc3cc4c(=O)n(Cc5ccc(Cl)cc5)cnc4nc3-c3cnco3)CCN12 [US12497405, Compound 37]
- IC50 [1]: 1.1 nM
- IC50 [2]: 0.22 nM
